Results taken from ChEMBL document CHEMBL4184171, “Design and synthesis of a biaryl series as inhibitors for the bromodomains of CBP/P300” (Bioorg Med Chem Lett, 2018).
In brackets after ≈: the same amount, converted by molar mass.

Legend:
in vitro [1] = conditions: rat, microsomes
Description: Clearance in rat liver microsomes

in vitro [2] = conditions: mouse, microsomes
Description: Clearance in mouse liver microsomes

in vivo [3] = conditions: CD-1, mouse
Description: Half life in CD-1 mouse at 1 mg/kg, iv or 5 mg/kg, po

in vitro [4] = conditions: human, hepatocytes
Description: Hepatic clearance in human hepatocytes

in vitro [5] = conditions: rat, plasma
Description: Protein binding in rat plasma

in vivo [6] = conditions: CD-1, mouse, po, 5 mg/kg
physchem = conditions: buffer, pH 7.4
Description: Kinetic solubility in PBS buffer at pH 7.4

[7] = molecular target: Bromodomain-containing protein 4 (Homo sapiens, UniProt O60885)
Description: Inhibition of BRD4 bromodomain 1 (unknown origin) by TR-FRET assay

in vivo [8] = conditions: CD-1, mouse, iv, 1 mg/kg
Description: Clearance in CD-1 mouse at 1 mg/kg, iv or 5 mg/kg, po

in vitro [9] = conditions: mouse, hepatocytes
Description: Hepatic clearance in mouse hepatocytes

in vivo [10] = conditions: CD-1, mouse, iv, 1 mg/kg; remark: listed apart in the source
Description: Volume of distribution at steady state in CD-1 mouse at 1 mg/kg, iv or 5 mg/kg, po

in vitro [11] = conditions: mouse, plasma
Description: Protein binding in mouse plasma

in vitro [12] = conditions: rat, hepatocytes
Description: Hepatic clearance in rat hepatocytes

in vitro [13] = conditions: human, microsomes
Description: Clearance in human liver microsomes

in vitro [14] = conditions: human, plasma
Description: Protein binding in human plasma

in vitro [15] = conditions: dog, MDCK
Description: Apparent permeability from apical to basolateral side in MDCK cells

## CC(=O)N1CCc2c(c(-c3cccc4cc(-c5cnn(C)c5)ncc34)nn2C2CCOCC2)C1
In vitro [1]
  CLhep predicted: 18 mL/min/kg
In vitro [2]
  CLhep predicted: 20 mL/min/kg
In vivo [3]
  half-life: 1.6 h
In vitro [4]
  CLhep predicted: < 6 mL/min/kg
In vitro [5]
  fraction unbound: 0.24
In vivo [6]
  bioavailability: 67%
physchem
  solubility kinetic: 92 µM (≈ 42 µg/mL)
[7]
  IC50: 2.5 µM
In vivo [8]
  clearance: 11 mL/min/kg
In vitro [9]
  CLhep predicted: < 21 mL/min/kg
In vivo [10]
  Vd: 1.3 L/kg
In vitro [11]
  fraction unbound: 0.15
In vitro [12]
  CLhep predicted: 14 mL/min/kg
In vitro [13]
  CLhep predicted: 8 to 8.3 mL/min/kg
In vitro [14]
  fraction unbound: 0.3
In vitro [15]
  Papp A→B: 10 ×10⁻⁶ cm/s

## CC(=O)N1CCc2c(c(-c3cncc4ccccc34)nn2C2CCOCC2)C1
[7]
  IC50: > 20 µM

## CC(=O)N1CCc2c(c(-c3cccc4cc(-c5cn(C)nc5C#N)ncc34)nn2C2CCOCC2)C1
In vitro [1]
  CLhep predicted: 45 mL/min/kg
In vitro [2]
  CLhep predicted: 32 mL/min/kg
[7]
  IC50: 3.8 µM
In vitro [13]
  CLhep predicted: 11 mL/min/kg

## CC(=O)N1CCc2c(c(-c3cc(CO)cc4ccncc34)nn2C2CCOCC2)C1
[7]
  IC50: > 20 µM

## COc1ccc(-c2nn(C3CCOCC3)c3c2CN(C(C)=O)CC3)c2cnccc12
[7]
  IC50: 11 µM

## CC(=O)N1CCc2c(c(-c3cccc4c[nH]c(=O)cc34)nn2C2CCOCC2)C1
[7]
  IC50: > 20 µM
